Tested on: HIV
Assay: microbe, parasite or virus in culture
Format: cell-based
Conditions: Human immunodeficiency virus 1, MT4, 96 h, read-out: EC50 (50% HIV inhibition concentration), MT-4 cells, HIV, cultured four days, MTT; compounds of formula (I) of (A)
Method: A serial dilution series of test samples was prepared in 96-well microplates (50 μL/well).
100 μL/well in each case were dispensed onto plates having test samples of 2.5×10^5/mL MT-4 cell suspension, and HIV virus solution was then dispensed thereto in the amount of 50 μL/well. Mixing was performed using a plate mixer and culturing was performed for four days in a CO2 incubator. MTT (3-(4,5-dimethylthiazol-2-yl)-2,5-diphenyltetrazolium bromide) liquid was dispensed into each well in the amount of 30 μL in each case. The reaction was conducted for 1 h in a CO2 incubator. 150 μL of supernatant were removed from each well, taking care not to aspirate any cells. 150 μL of cell solution were added, and thorough mixing was performed with a plate mixer until all the cells had been dissolved. The optical absorbance of the mixed plates was measured at two wavelengths: 560 nm/690 nm, with a microplate reader.

Question: Which EC50 does the source give for `CCN1C(=O)c2c(O)c(=O)c(-c3nnc(Cc4c(F)cc(F)cc4F)s3)cn2N2CC[C@@H](C)C[C@@H]12` [II-143] here?
Answer: 1.7 nM

Question: For `CCN1C(=O)c2c(O)c(=O)c(-c3nnc(Cc4c(F)cc(F)cc4F)s3)cn2N2C[C@@H](C)C[C@@H]12` [II-112], which EC50 is on record?
Answer: 1.9 nM

Question: For `CCN1C(=O)c2c(O)c(=O)c(C(=O)NCc3ccc(F)cc3F)cn2N2CC[C@@H](C)C[C@@H]12` [II-068], which EC50 is on record?
Answer: 0.25 nM

Question: With `C[C@@H]1CCC[C@H]2N(C)C(=O)c3c(O)c(=O)c(-c4nnc(Cc5ccc(F)cc5F)s4)cn3N12` [II-124] as the compound, how does the EC50 read?
Answer: 3.5 nM

Question: For `CCN1C(=O)c2c(O)c(=O)c(-c3nnc(Cc4c(F)cc(F)cc4F)s3)cn2N2C[C@@H](C)CC[C@@H]12` [II-156], which EC50 is on record?
Answer: 1.2 nM

Tested on: HIV mutant strain 1 (E138K/G140S/Q148H/N155H)
Assay: Test Example 2: resistance evaluation test (HeLa-CD4 reporter), mutant strain 1
Format: cell-based
Conditions: FC=EC50 of mutant strain/EC50 of wild strain; HeLa-CD4 cells
Method: (§1) A serial dilution series of test samples in 96-well microplates was prepared (50 […]).
(§2) 2.5×10^4/mL of HeLa-CD4 cell suspension was dispensed into each of the microplates containing test sample, in the amount of 100 μL/well, and HIV virus liquid (wild strain and mutant strain) was then dispensed in an amount of 50 μL/well. Mixing was performed using a plate mixer and culturing was performed for three days in a CO2 incubator. After removing the cultured supernatant of each well by suction, 100 μL of the cell solution buffer in the reporter measurement kit was dispensed thereto, and freezing was conducted in a refrigerator (−80° C.). The plates frozen in the refrigerator were defrosted at room temperature, then mixed using a plate mixer and centrifuged for 5 min at 1,200 rpm. The supernatant of each well was divided to 96-well microplates (BLACK) in the amount of 20 μL in each case. The chemiluminescence reagent in the reporter assay kit was dispensed in the amount of 100 μL in each case, and, after reacting for about 1 h at room temperature, the amount of luminescence was measured using a MicroBeta TRILUX.
(§3) The degree of resistance (fold change (FC)) of each mutant strain was also calculated using the following formula. FC=EC50 of mutant strain/EC50 of wild strain (Results)
(§4) The results of the example compounds relating to formula (I) of (A) are shown below. The […] in respect of mutant strain 1 (E138K/G140S/Q148H/N155H) and the FC in respect of mutant strain 2 (E92Q/E138T/G140S/Q148H) are shown in the Table.

Question: Which “FC in respect of mutant strain 1 (E138K/G140S/Q148H/N155H)” value (shortened to “FC … (E138K/G140S/Q148H/N155H)”) does the source give for `CCN1C(=O)c2c(O)c(=O)c(-c3nnc(Cc4c(F)cc(F)cc4F)s3)cn2N2CC[C@@H](C)C[C@@H]12` [II-143] here?
Answer: 3

Question: For `CCN1C(=O)c2c(O)c(=O)c(-c3nnc(Cc4c(F)cc(F)cc4F)s3)cn2N2C[C@@H](C)C[C@@H]12` [II-112], which “FC … (E138K/G140S/Q148H/N155H)” value is on record?
Answer: 4.7

Question: Which “FC … (E138K/G140S/Q148H/N155H)” value does the source give for `CCN1C(=O)c2c(O)c(=O)c(C(=O)NCc3ccc(F)cc3F)cn2N2CC[C@@H](C)C[C@@H]12` [II-068] here?
Answer: 7

Question: For `C[C@@H]1CCC[C@H]2N(C)C(=O)c3c(O)c(=O)c(-c4nnc(Cc5ccc(F)cc5F)s4)cn3N12` [II-124], which “FC … (E138K/G140S/Q148H/N155H)” value is on record?
Answer: 6.8

Question: With `CCN1C(=O)c2c(O)c(=O)c(-c3nnc(Cc4c(F)cc(F)cc4F)s3)cn2N2C[C@@H](C)CC[C@@H]12` [II-156] as the compound, how does the “FC … (E138K/G140S/Q148H/N155H)” value read?
Answer: 3.5

Tested on: HIV mutant strain 2 (E92Q/E138T/G140S/Q148H)
Assay: Test Example 2: resistance evaluation test (HeLa-CD4 reporter), mutant strain 2
Format: cell-based
Conditions: FC=EC50 of mutant strain/EC50 of wild strain; HeLa-CD4 cells
Method: as §1, §2, §3, §4

Question: With `CCN1C(=O)c2c(O)c(=O)c(-c3nnc(Cc4c(F)cc(F)cc4F)s3)cn2N2CC[C@@H](C)C[C@@H]12` [II-143] as the compound, how does the “FC in respect of mutant strain 2 (E92Q/E138T/G140S/Q148H)” value (from here on “FC … (E92Q/E138T/G140S/Q148H)”) read?
Answer: 3.6

Question: Which “FC … (E92Q/E138T/G140S/Q148H)” value does the source give for `CCN1C(=O)c2c(O)c(=O)c(-c3nnc(Cc4c(F)cc(F)cc4F)s3)cn2N2C[C@@H](C)C[C@@H]12` [II-112] here?
Answer: 7

Question: With `CCN1C(=O)c2c(O)c(=O)c(C(=O)NCc3ccc(F)cc3F)cn2N2CC[C@@H](C)C[C@@H]12` [II-068] as the compound, how does the “FC … (E92Q/E138T/G140S/Q148H)” value read?
Answer: 4.2

Question: For `C[C@@H]1CCC[C@H]2N(C)C(=O)c3c(O)c(=O)c(-c4nnc(Cc5ccc(F)cc5F)s4)cn3N12` [II-124], which “FC … (E92Q/E138T/G140S/Q148H)” value is on record?
Answer: 11

Question: With `CCN1C(=O)c2c(O)c(=O)c(-c3nnc(Cc4c(F)cc(F)cc4F)s3)cn2N2C[C@@H](C)CC[C@@H]12` [II-156] as the compound, how does the “FC … (E92Q/E138T/G140S/Q148H)” value read?
Answer: 4.6

Tested on: not listed separately
Assay: Test Example 8: metabolic stability test
Format: in vitro ADME, human
Conditions: pooled human liver microsomes, 30 min at 37° C., NADPH, compound concentration 0.5 μmol/L
Method: The extent of metabolization of the compound according to the present invention in the liver was evaluated by reacting commercially available pooled human liver microsomes with the compound according to the present invention for a fixed time and calculating the remaining percentage by comparing the reaction sample with an unreacted sample.
The reaction (oxidative reaction) was conducted for 0 min or 30 min at 37° C. in the presence of 1 mmol/L of NADPH, in a 0.2 mL buffer solution containing 0.5 mg of human liver microsome protein/mL (50 mmol/L Tris-HCl pH 7.4, 150 mmol/L potassium chloride, 10 mmol/L magnesium chloride). After the reaction, 50 μL of reaction liquid were added to 100 μL of methanol/acetonitrile=1/1 (v/v) solution, mixed, and centrifuged for 15 minutes at 3000 rpm. The compound according to the present invention in the centrifuged supernatant was quantified using LC/MS/MS or solid phase extraction (SPE)/MS; the residual amount of the compound according to the present invention after the reaction was calculated, taking the amount of the compound at the 0 min reaction point as 100%.

Question: Which Remaining percentage does the source give for `CCN1C(=O)c2c(O)c(=O)c(-c3nnc(Cc4c(F)cc(F)cc4F)s3)cn2N2CC[C@@H](C)C[C@@H]12` [II-143] here?
Answer: 82.5%

Question: With `CCN1C(=O)c2c(O)c(=O)c(-c3nnc(Cc4c(F)cc(F)cc4F)s3)cn2N2C[C@@H](C)C[C@@H]12` [II-112] as the compound, how does the Remaining percentage read?
Answer: 90.5%

Question: For `CCN1C(=O)c2c(O)c(=O)c(C(=O)NCc3ccc(F)cc3F)cn2N2CC[C@@H](C)C[C@@H]12` [II-068], which Remaining percentage is on record?
Answer: 82.9%

Question: For `C[C@@H]1CCC[C@H]2N(C)C(=O)c3c(O)c(=O)c(-c4nnc(Cc5ccc(F)cc5F)s4)cn3N12` [II-124], which Remaining percentage is on record?
Answer: 103%

Question: With `CCN1C(=O)c2c(O)c(=O)c(-c3nnc(Cc4c(F)cc(F)cc4F)s3)cn2N2C[C@@H](C)CC[C@@H]12` [II-156] as the compound, how does the Remaining percentage read?
Answer: 91.3%
